Reference: patent US10888547B2, “Amorphous and a crystalline form of genz 112638 hemitartrate as inhibitor of glucosylceramide synthase” (Genzyme Corporation, priority 2009, dated 2021)

What was measured:
[1] = target: T1, glucosylceramide synthase (Homo sapiens, UniProt Q16739); experiment: Glucosylceramide synthase inhibition in microsomes from human melanoma A375 cells; type: biochemical
T1 construct: microsomes were prepared from human melanoma A375 cells by sonication and centrifugation; endogenous in cells; host or cells: human melanoma A375 cells (microsomes)
T1 sequence (Q16739 1-394): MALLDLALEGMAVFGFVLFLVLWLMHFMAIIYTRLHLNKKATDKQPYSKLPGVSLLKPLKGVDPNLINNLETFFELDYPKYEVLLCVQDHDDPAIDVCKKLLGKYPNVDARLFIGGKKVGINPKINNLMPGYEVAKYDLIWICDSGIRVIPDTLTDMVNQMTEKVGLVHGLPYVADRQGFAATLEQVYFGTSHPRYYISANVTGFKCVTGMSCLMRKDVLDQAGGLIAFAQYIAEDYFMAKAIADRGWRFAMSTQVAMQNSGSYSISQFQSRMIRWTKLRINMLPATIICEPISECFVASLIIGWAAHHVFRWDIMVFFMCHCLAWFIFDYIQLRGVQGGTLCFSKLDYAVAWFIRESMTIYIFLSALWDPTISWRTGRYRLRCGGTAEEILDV
Procedure: An alternative assay for activity measured inhibition of glucosylceramide synthase in human cell derived microsomes. In this assay, microsomes were prepared from human melanoma A375 cells by sonication and centrifugation. […] Following the incubation, fluorescently labeled glucosylceramide and unreacted ceramide were separated and quantitated by reverse-phase HPLC and fluorescence detection.

lactase = target: T2, lactase (Rattus norvegicus, UniProt Q02401); experiment: Intestinal glycosidase assay in rat tissue homogenates; type: biochemical; conditions: concentrations up to 2500 μM
T2 construct: The intestinal glycosidase enzymes were assayed in rat tissue homogenates; from tissue; host or cells: rat intestinal tissue homogenate
T2 sequence (Q02401 868-1928): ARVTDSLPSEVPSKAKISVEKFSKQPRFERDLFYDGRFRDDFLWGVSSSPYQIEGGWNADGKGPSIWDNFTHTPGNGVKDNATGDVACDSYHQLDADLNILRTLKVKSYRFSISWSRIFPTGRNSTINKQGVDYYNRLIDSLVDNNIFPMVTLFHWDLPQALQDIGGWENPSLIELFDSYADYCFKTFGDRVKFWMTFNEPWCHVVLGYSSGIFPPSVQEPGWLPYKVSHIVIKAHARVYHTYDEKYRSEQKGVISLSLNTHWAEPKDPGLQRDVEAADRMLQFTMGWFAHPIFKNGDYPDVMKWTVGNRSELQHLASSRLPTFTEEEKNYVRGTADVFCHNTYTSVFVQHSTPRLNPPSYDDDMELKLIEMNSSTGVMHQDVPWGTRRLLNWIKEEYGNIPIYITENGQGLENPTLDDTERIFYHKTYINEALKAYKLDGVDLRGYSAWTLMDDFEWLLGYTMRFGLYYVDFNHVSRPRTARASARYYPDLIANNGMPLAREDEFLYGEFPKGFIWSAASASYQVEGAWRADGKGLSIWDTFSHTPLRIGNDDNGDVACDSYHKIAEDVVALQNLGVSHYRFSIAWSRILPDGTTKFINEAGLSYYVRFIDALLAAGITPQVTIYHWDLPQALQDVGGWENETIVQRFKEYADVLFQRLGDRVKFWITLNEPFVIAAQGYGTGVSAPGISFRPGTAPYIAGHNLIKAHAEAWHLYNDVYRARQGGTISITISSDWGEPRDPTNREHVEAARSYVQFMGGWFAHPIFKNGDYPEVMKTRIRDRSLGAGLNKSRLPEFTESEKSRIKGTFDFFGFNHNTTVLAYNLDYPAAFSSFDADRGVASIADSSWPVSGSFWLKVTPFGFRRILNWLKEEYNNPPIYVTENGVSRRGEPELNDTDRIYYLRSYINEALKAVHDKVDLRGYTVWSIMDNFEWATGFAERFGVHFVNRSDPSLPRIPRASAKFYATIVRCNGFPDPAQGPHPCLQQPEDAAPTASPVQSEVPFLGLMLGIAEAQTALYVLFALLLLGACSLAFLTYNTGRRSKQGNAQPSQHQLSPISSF
Procedure: (§1) The specificity of Formula (I) Hemitartrate was evaluated in a series of in vitro cell-based and cell-free assays. The intestinal glycosidase enzymes were assayed in rat tissue homogenates (see U. Andersson, et al., Biochem. Pharm. 59 (2000) 821-829, the entire teachings of which are incorporated herein by reference), and the glycogen debranching enzyme was assayed in a cell free assay as described (see U. Andersson, et al., Biochem. Pharm. 67 (2004) 697-705, the entire teachings of which are incorporated herein by reference).

maltase = experiment: as above; type: biochemical
Procedure: as §1

α-glucosidase I and II = experiment: α-Glucosidase I and II specificity assay; type: biochemical
[2] = target: T3, Lysosomal glucocerebrosidase (GBA1) (Homo sapiens, UniProt P04062); experiment: Lysosomal glucocerebrosidase in intact human cells / FACS in K562 cells; type: cell-based
T3 construct: endogenous in cells; K562 cells for the FACS assay
T3 sequence (P04062 40-536): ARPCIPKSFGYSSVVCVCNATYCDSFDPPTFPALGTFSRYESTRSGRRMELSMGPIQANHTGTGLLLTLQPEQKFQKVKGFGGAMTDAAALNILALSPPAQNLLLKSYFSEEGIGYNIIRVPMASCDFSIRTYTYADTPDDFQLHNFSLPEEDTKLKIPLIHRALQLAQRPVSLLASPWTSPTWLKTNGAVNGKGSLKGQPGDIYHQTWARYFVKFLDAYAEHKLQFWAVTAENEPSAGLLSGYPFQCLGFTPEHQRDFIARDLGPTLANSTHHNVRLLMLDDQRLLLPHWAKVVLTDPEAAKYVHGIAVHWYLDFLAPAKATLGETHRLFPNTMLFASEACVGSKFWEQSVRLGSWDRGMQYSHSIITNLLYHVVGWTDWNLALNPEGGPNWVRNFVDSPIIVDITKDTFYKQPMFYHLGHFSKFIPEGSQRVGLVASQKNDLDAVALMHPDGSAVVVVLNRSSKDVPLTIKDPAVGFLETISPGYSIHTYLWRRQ
Procedure: Non-lysosomal glucosylceramidase and lysosomal glucocerebrosidase were assayed in intact human cells using C6-NBD-glucosylceramide as substrate (see H. S. Overkleeft, et al. J. Biol. Chem. 273 (1998) 26522-26527, the entire teachings of which are incorporated herein by reference). Conduritol β epoxide (a specific inhibitor of lysosomal glucocerebrosidase) was used to differentiate lysosomal versus the non-lysosomal activity. Glucocerebrosidase activity was also measured by fluorescence-activated cell sorting (FACS). […] Cells were immediately chilled on ice and the fluorescence quantitated is above.

Aqueous solubility = type: physicochemical; conditions: in water
[3] = both, human, in vivo
Source text: This was an open-label, fixed-sequence study in 36 healthy subjects (17 males and 19 females).

With `CCCCCCCC(=O)N[C@H](CN1CCCC1)[C@H](O)c1ccc2c(c1)OCCO2` [Formula (I) Hemitartrate] the “differential in concentration required to inhibit glucosylceramide synthase compared to any of the other enzymes tested” value [1] was “approximately 40,000”, the inhibition of lactase (lactase) was “No detectable inhibition” and the inhibition of maltase (maltase; concentrations up to 2500 μM) was “No detectable inhibition”. For the same compound, the Ki (maltase; read-out: Enzyme specificities, Ki: Maltase inhibition) was over 10 µM, the “inhibition of α-glucosidase I and II” value (α-glucosidase I and II; concentrations up to 2500 μM) was “No detectable inhibition” and the IC50 (α-glucosidase I and II; read-out: Enzyme specificities, IC50: α-Glucosidase I and II) was over 2500 µM. For the same compound, the “inhibition of glucocerebrosidase activity” value ([2]; at the effective dose) was “no measurable inhibition”, the IC50 ([2]; read-out: Enzyme specificities, IC50: Lysosomal glucocerebrosidase (GBA1)) was over 2500 µM and the “inhibition of lysosomal glucocerebrosidase” value ([2]; up to the highest concentration of 2500 μM) was “no inhibition”. The Aqueous solubility (Aqueous solubility) was over 216 mg/mL, the Aqueous solubility (Aqueous solubility; listed as Formula I Hemitartrate) was “over 300 mg/mL” and the “accumulation in AUC, repeated versus single dose administration” value [3] was 2 fold. The “accumulation in Cmax, repeated versus single dose administration” value [3] was 2 fold, the “increase in AUC with concomitant paroxetine versus multiple-dose alone” value [3] was 9 fold and the “increase in Cmax with concomitant paroxetine versus multiple-dose alone” value [3] was 7 fold.
